SMILES strings stand for the structures.

The experiment deals with Human keratinocytes. Nature of the experiment: Synergistic osmo-protective activity of homarine and erythritol after NaCl hyper-osmotic stress; UPTIBLUE cell count. It counts as cell-based. The protocol:
Human kerotinocytes were cultured for 24 h in a culture medium (DMEMc+FCS) than incubated until confluence was obtained. At this stage, the cells were putted in pre-contact with the compounds for 24 h. The day after, a 5h NaCl stress in the presence of the compounds was applied to the cells in the DMEMc medium (without FCS, with BSA) containing 150 mM of NaCl. After this stress, cells were rinced and were recovered with or without the compounds to be tested in the same medium as before (T0). Recovery was estimated at long term by measuring the survival at T5 days and at T7 days after the beginning of the stress (T0). The compounds were tested at the following concentrations: erythritol 0.6%, homarine 0.006% (corresponding to 1×) and homarine 0.06% (corresponding to 10×).
The UPTIBLUE technic was used to visualize and quantify the cell number after the hyper-osmotic shock and the osmo-protective effect of the compound was thus evaluated.

In the case of `C[n+]1ccccc1C(=O)[O-]` [Homarine], under “5 and 7 days after hyper-osmotic shock”, the “Osmo-protective effect with regards a hyper-osmotic stress, in words” value was “dose dependant”. Besides, the “% of change in cell count versus control (post-stress)” value reads like this: (T0, homarine 0.006% (1x), erythritol 0.6% where combined) “+10%”; (T0, homarine 0.06% (10x), erythritol 0.6% where combined) “+14%”; (T5 days, homarine 0.006% (1x), erythritol 0.6% where combined) “+33%”; (T5 days, homarine 0.06% (10x), erythritol 0.6% where combined) “+93%”; (T7 days, homarine 0.006% (1x), erythritol 0.6% where combined) “+26%”; (T7 days, homarine 0.06% (10x), erythritol 0.6% where combined) “+130%”.
As for `OC[C@@H](O)[C@@H](O)CO` [Erythritol], the “% of change in cell count versus control (post-stress)” value was −8% (T0, erythritol 0.6% alone); “+39%” (T5 days, erythritol 0.6% alone); “+62%” (T7 days, erythritol 0.6% alone).

The values are drawn from patent publication US8388939B2, “Moisturizing cosmetic composition comprising a combination of homarine and erythritol” (Sederma, S.A.S., priority 2008, dated 2013).
